Experimental findings from US20250002493A1, “PYRIDONE COMPOUND AND PREPARATION METHOD THEREFOR, PHARMACEUTICAL COMPOSITION AND USE” (NANJING CHINA-AUSTRALIA INSTITUTE OF TRANSLATIONAL MEDICINE …, priority 2022, published 2025) are described below.

One assay concerns MDA-MB-231 cancer cells. Description: Inhibitor-induced apoptosis, flow cytometry with Annexin V and propidium iodide. It counts as cell-based, human. The following applies: 3 hours. The procedure: After treating the cells with 10 nM and 100 nM concentrations of the compounds for 3 hours, the induction of apoptosis was analyzed using flow cytometry with Annexin V and propidium iodide staining.

Assay [1] addresses BIR3 domain of human cIAP1 (residues 255-364) (Homo sapiens (Human), UniProt Q13490). Kind of assay: Fluorescence polarization competitive binding to cIAP1 BIR3. The following applies: FP, peptide probe 5 nM, cIAP1 BIR3 5 nM, 1 hour room temperature. The procedure:
(§1) The binding affinity of the compounds provided by the present invention to IAP proteins was determined using a fluorescence polarization method (Nikolovska-Colesak et al, Anal. Biochem. 2004, 332:261-73). The recombinant BIR3 domains of human XIAP (residues 238-358), human cIAP1 (residues 255-364) and human cIAP2 (residues 236-342) fusing GST-tags were expressed in E. coli and purified using glutathione agarose 4B affinity chromatography and gel filtration chromatography. A 5-Fam fluorescently modified peptide probe (AbuRPFK(5-Fam)-NH2) was used to test the competitive binding ability of the compounds to the BIR3 domains of XIAP, cIAP1 and cIAP2. The peptide probe (5 nM), XIAP BIR3 (30 nM) or cIAP1 BIR3 (5 nM) or cIAP2 BIR3 (10 nM), and serial diluted compounds were mixed in a test buffer (100 mM potassium phosphate pH 7.5, 100 μg/ml bovine gamma globulin, 0.02% sodium azide, and 1 mM DTT). After incubating the samples at room temperature for 1 hour, the fluorescence polarization values were read using a Tecan microplate reader (FP excitation wavelength 485 nm, […] wavelength 530 nm). The IC50 value was obtained by fitting the curve using nonlinear least square regression with the Graphpad Prism software. The inhibition constant Ki, values were calculated using the Equation Ki, [I]50/([L]50/Kd+[P]0/Kd+1).
(Polarisation of emitted light reports the rotation of a fluorescent probe.)

In assay [2] the test system is PANC1 human pancreatic cancer. Description: WST-8 cell proliferation assay, PANC1. It counts as cell-based. The following applies: PANC-1, 72 hours. The procedure:
(§2) The effects of the compounds provided by the present invention on the proliferation of different cancer cell lines were tested using the WST-8 assay kit. This method is based on the reduction of WST-8 by dehydrogenase in live cells to form a highly water-soluble yellow Formazan dye. Cells were seeded in a 96-well plate and cultured with the test compounds at 37° C. under 5% CO2 for 72 hours. Afterwards, 10% (v/v) WST-8 was added, and the samples were incubated for an additional 2-3 hours. The absorbance of the samples was measured at 450 nm using a Tecan microplate reader, and the concentration of the compound that inhibited 50% of cell proliferation (IC50, nM) was calculated. The activity of the compounds provided by the present invention was determined in three cancer cell lines: MDA-MB-231 human breast cancer cells, SK-OV-3 human ovarian cancer cells, and PANC1 human pancreatic cancer.
A general note: Tetrazolium dyes change colour on reduction, which living cells bring about.

Assay [3] addresses BIR3 domain of human XIAP (residues 238-358) (Homo sapiens (Human), UniProt P98170). Kind of assay: Fluorescence polarization competitive binding to XIAP BIR3. The following applies: FP, peptide probe 5 nM, XIAP BIR3 30 nM, 1 hour room temperature. The method, then:
as §1

Assay [4] concerns SK-OV-3 human ovarian cancer cells. Kind of assay: WST-8 cell proliferation assay, SK-OV-3. It counts as cell-based. The following applies: 72 hours, read-out: SKOV-3 IC50. The method, then:
as §2

For assay [5], the system named is MDA-MB-231 human breast cancer cells. Kind of assay: WST-8 cell proliferation assay, MDA-MB-231. It counts as cell-based. The following applies: 72 hours. The method, then: as §2
Assay [6] has as its target BIR3 domain of human cIAP2 (residues 236-342) (Homo sapiens (Human), UniProt Q13489). Kind of assay: Fluorescence polarization competitive binding to cIAP2 BIR3. The following applies: FP, peptide probe 5 nM, cIAP2 BIR3 10 nM, 1 hour room temperature. The method, then:
as §1

BIR3 domain of human XIAP (residues 238-358), sequence (P98170 238-358): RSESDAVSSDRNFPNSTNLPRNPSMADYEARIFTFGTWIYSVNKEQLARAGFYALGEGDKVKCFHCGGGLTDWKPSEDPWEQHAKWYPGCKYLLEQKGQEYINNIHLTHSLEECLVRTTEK
BIR3 domain of human cIAP2 (residues 236-342), sequence (Q13489 236-342): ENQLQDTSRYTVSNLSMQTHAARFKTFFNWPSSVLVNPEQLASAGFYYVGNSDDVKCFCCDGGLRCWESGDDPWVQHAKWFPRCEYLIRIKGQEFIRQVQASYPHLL
BIR3 domain of human cIAP1 (residues 255-364), sequence (Q13490 255-364): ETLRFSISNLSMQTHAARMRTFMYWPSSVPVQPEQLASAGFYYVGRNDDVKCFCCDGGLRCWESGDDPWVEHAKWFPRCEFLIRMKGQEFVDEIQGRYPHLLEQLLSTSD

A word on the Ki: it is a dissociation constant, usually derived from enzyme kinetics or from competition with a known ligand. A low value points to tighter binding. The term IC50 denotes the concentration that gives 50% inhibition. As to `[2H]C([2H])([2H])N[C@@H](C)C(=O)N[C@H](C(=O)N1CCc2cc(=O)n(Cc3ccc(F)cc3F)cc21)C(C)(C)C` [Compound I-2-22], the “Proportion of apoptotic cells” value amounted to 38% in the assay with MDA-MB-231 cancer cells (Drug concentration 10 nM) and 52% in the assay on MDA-MB-231 cancer cells (Drug concentration 100 nM). Besides, the inhibition constant Ki in assay [1] worked out at 0.8 nM; in assay [3] it was 21 nM; in assay [6] it was 1.5 nM. Further, the IC50 in assay [2] was 34 nM; in assay [4] it was 2 nM; in assay [5], 3 nM.

With `CN[C@@H](C)C(=O)N[C@H](C(=O)N1CCc2cc(=O)n(Cc3ccc(F)cc3F)cc21)C1CCCCC1` [Compound I-2-4], the results for the “Proportion of apoptotic cells” value in the assay with MDA-MB-231 cancer cells (Drug concentration 10 nM) and in the assay with MDA-MB-231 cancer cells (Drug concentration 100 nM) were 32% and 45%, respectively. Further, the Ki amounted to 1.3 nM in assay [1], 73.2 nM in assay [3] and 3.2 nM in assay [6]. Besides, the IC50 turned out to be 75 nM in assay [2], 13 nM in assay [4] and 8 nM in assay [5].

`CN[C@@H](C)C(=O)N[C@H](C(=O)N1CC(C)(C)c2cc(=O)n(Cc3ccc(F)cc3O)cc21)C(C)(C)C` [Compound I-2-32]: the “Proportion of apoptotic cells” value amounted to 21% with MDA-MB-231 cancer cells (Drug concentration 10 nM) and 43% in the assay on MDA-MB-231 cancer cells (Drug concentration 100 nM). The Ki in assay [1] came out at 2.2 nM; in assay [3], 343 nM; in assay [6], 10 nM. Besides, the IC50 in assay [2] is 189 nM; in assay [4] it was 29 nM; in assay [5], 28 nM.

Regarding `[2H]C([2H])([2H])N[C@@H](C)C(=O)N[C@H](C(=O)N1CC(C)(C)c2cc(=O)n(Cc3ccc(F)cc3F)cc21)C(C)(C)C` [Compound I-2-28], the “Proportion of apoptotic cells” value came out at 29% with MDA-MB-231 cancer cells (Drug concentration 10 nM) and 47% with MDA-MB-231 cancer cells (Drug concentration 100 nM). The Ki in assay [1] came to 1.9 nM; in assay [3] it was 185 nM; in assay [6] it was 6.7 nM. In addition, the IC50 in assay [2] is 124 nM; in assay [4], 23 nM; in assay [5], 20 nM.

Consider `CN[C@@H](C)C(=O)N[C@H](C(=O)N1CCc2[nH]c(=O)c(Cc3ccc(F)cc3)cc21)C1CCCCC1` [Compound I-4-1, (S)-N-((S)-1-cyclohexyl-2-(6-(4-fluorobenzyl)-5-oxo-2,3,4,5-tetrahydro-1H-pyrrolo[3,2-b]pyridine-1-yl)-2-oxyethyl)-2-(methylamino)propanamide], for which the “Proportion of apoptotic cells” value worked out at 36% in the assay on MDA-MB-231 cancer cells (Drug concentration 10 nM) and 49% in the assay on MDA-MB-231 cancer cells (Drug concentration 100 nM). The results for the Ki in assay [1], in assay [3] and in assay [6] were 1.3 nM, 19.9 nM and 2.7 nM, respectively. For the same compound, the results for the IC50 in assay [2], in assay [4] and in assay [5] were 53 nM, 1 nM and 6 nM, respectively.

Turning to `[2H]C([2H])([2H])N[C@@H](C)C(=O)N[C@H](C(=O)N1CC(C)(C)c2cc(=O)n(Cc3ccc(F)cc3)cc21)C(C)(C)C` [Compound I-2-29], the “Proportion of apoptotic cells” value in the assay with MDA-MB-231 cancer cells (Drug concentration 10 nM) is 20%; in the assay on MDA-MB-231 cancer cells (Drug concentration 100 nM), 42%. The Ki stood at 3 nM in assay [1], 568 nM in assay [3] and 12.7 nM in assay [6]. Also, the IC50 in assay [2] was found to be 165 nM; in assay [4], 32 nM; in assay [5], 29 nM.
